These results are taken from patent US12241112B2, “D-glucaric acid producing bacterium, and method for manufacturing D-glucaric acid” (Ensuiko Sugar Refining Co., Ltd., priority 2012, dated 2025).

The target of one data set is T1, β-glucuronidase (Homo sapiens, UniProt P08236).
T1 sequence (P08236 23-651): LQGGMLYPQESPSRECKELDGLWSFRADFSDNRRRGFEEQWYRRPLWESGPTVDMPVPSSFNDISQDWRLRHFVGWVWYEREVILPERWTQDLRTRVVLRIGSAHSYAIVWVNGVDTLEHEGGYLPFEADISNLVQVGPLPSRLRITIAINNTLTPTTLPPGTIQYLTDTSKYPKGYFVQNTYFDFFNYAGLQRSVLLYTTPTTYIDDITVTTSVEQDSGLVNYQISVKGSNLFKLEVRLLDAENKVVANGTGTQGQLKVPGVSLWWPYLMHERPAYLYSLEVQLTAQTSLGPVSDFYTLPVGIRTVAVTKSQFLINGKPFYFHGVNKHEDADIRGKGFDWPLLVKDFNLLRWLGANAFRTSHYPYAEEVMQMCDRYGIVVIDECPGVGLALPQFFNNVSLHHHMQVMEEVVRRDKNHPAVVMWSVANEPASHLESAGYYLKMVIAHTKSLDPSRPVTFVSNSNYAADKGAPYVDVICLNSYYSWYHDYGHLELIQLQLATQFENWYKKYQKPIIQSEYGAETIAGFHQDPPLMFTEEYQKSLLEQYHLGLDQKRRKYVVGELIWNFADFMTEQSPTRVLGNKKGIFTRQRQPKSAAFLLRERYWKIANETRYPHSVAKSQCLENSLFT
Particulars: background statement; cited from earlier work.

The test system of the next data set is PQQ-ADH (1). The data set can be described thus: Substrate specificity of PQQ-ADH (1). In kind it is biochemical, Pseudogluconobacter saccharoketogenes. Particulars: McIlvaine buffer pH 5.0, relative to D-glucose set to be 100. Here is the method:
(§1) The culture solution (1 mL) was centrifuged at 10,000 rpm for 5 minutes to recover the cells. The cells were resuspended in 1 mL of 0.9% saline. The cell suspension was appropriately diluted in 0.9% saline to obtain a crude enzyme solution. In a test tube 250 μL of the buffer, 500 μL of the substrate solution and 50 μL of the crude enzyme solution were placed and preliminarily heated to 30° C. for 5 minutes.
(§2) To the mixture 200 μL of the potassium ferricyanide solution was added to initiate oxidation reaction. After 10 minutes, 500 μL of the reaction termination solution was added to terminate the reaction. The reaction solution was added with 3.5 mL of pure water, left to stand in the dark at room temperature for 20 minutes and measured for the absorbance at 660 nm. For the control, pure water was used instead of the substrate solution. In this measurement, 1 U is defined as the amount of enzyme required to oxidize 1 μM of the substrate per minute.
Each substrate (D-glucose, sodium D-gluconate, sodium D-glucuronate, intermediate A, sodium salt of intermediate B) was dissolved in McIlvaine buffer (pH 5.0) and the activity of ADH was measured as described in Example 1 to study the substrate specificity of PQQ-ADH (1). The enzyme activity for each substrate is expressed as a relative activity to the activity measured with D-glucose as a substrate that was set to be 100.

For a further data set, the system named is PQQ-ALDH (2). Put plainly: Substrate specificity of PQQ-ALDH (2). It counts as biochemical, Pseudogluconobacter saccharoketogenes. The settings on record: McIlvaine buffer pH 8.0, relative to sodium salt of intermediate B set to be 100. As to the method: (§3) • Substrate solution: 0.2 M sodium glyoxylate solution (adjusted to pH 8.0 with sodium hydroxide) • Buffer: McIlvaine buffer (pH 8.0)
(§4) Other reagents and preparation methods thereof and measurement procedures are in accordance with the measurement of ADH (1) activity.
Each substrate (D-glucose, sodium D-gluconate, sodium D-glucuronate, intermediate A, sodium salt of intermediate B, sodium glyoxylate) was dissolved in McIlvaine buffer (pH 8.0) and the activity of ALDH was measured as described in Example 1 to study the substrate specificity of PQQ-ALDH (2). The enzyme activity for each substrate is expressed as a relative activity to the activity measured with the sodium salt of intermediate B as a substrate that was set to be 100.

The next data set concerns PQQ/Heme-ALDH (4). Put plainly: Substrate specificity of PQQ/Heme-ALDH (4). It counts as biochemical, Pseudogluconobacter saccharoketogenes. The settings on record: McIlvaine buffer pH 8.0, relative to sodium D-gluconate set to be 100. As to the method: as §3, §4
Each substrate (D-glucose, sodium D-gluconate, sodium D-glucuronate, intermediate A, sodium salt of intermediate B, sodium glyoxylate) was dissolved in McIlvaine buffer (pH 8.0) and the activity of ALDH was measured as described in Example 1 to study the substrate specificity of PQQ/Heme-ALDH (4). The enzyme activity for each substrate is expressed as a relative activity to the activity measured with sodium D-gluconate as a substrate that was set to be 100.

The subject of another data set is ALDH (2 and 3). Put plainly: Measurement of activity of ALDH (2 and 3) (potassium ferricyanide method, sodium glyoxylate substrate, pH 8.0). In kind it is biochemical, Pseudogluconobacter saccharoketogenes. As to the method: as §1, §2
2) Measurement of Activity of ALDH (2 and 3)
as §3, §4

A further data set deals with ADH (1). The data set can be described thus: Measurement of activity of ADH (1) (potassium ferricyanide method, glucose substrate, pH 5.0). In kind it is biochemical, Pseudogluconobacter saccharoketogenes. Particulars: ADH (1) activity. Here is the method:
1) Measurement of Activity of ADH (1)
• Substrate solution: 0.2 M glucose solution • Buffer: McIlvaine buffer (pH 5.0) • Potassium ferricyanide solution: 0.1 M potassium ferricyanide solution • Reaction termination solution: 5 g of ferric sulphate and 95 mL of phosphoric acid were dissolved in pure water and adjusted to 1 L. <Measurement Procedures>
as §1, §2

Counter-ions that a name gives are not always drawn. A value given as a limit tells only on which side of the number the result lay.

Turning to `O=C(O)[C@@H](O)[C@@H](O)[C@H](O)[C@@H](O)C(=O)O` [D-glucaric acid], the “inhibition of β-glucuronidase” value on β-glucuronidase is given as “strongly inhibit”.

As to `O=C[C@H](O)[C@@H](O)[C@H](O)[C@H](O)CO` [D-glucose], the Relative activity in the data set with PQQ-ADH (1) (0.2M substrate) was found to be 100%; in the data set on PQQ-ALDH (2) (0.2M substrate) it was 11.8%; with PQQ/Heme-ALDH (4) (0.2M substrate), 35.1%.

Take `O=C[C@@H](O)[C@@H](O)[C@H](O)[C@@H](O)C=O` [intermediate A, D-glucaraldehyde]: the Relative activity in the data set on PQQ-ADH (1) (0.02M substrate) was 59.1%; in the data set with PQQ-ALDH (2) (0.02M substrate), 476%; in the data set on PQQ/Heme-ALDH (4) (0.02M substrate), 11.6%.

For the molecule `O=C([O-])[C@H](O)[C@@H](O)[C@H](O)[C@H](O)CO.[Na+]` [sodium D-gluconate], the Relative activity with PQQ-ADH (1) (0.2M substrate) is on record as 88.6%; in the data set with PQQ-ALDH (2) (0.2M substrate), less than 1%; in the data set with PQQ/Heme-ALDH (4) (0.2M substrate), 100%.

In the case of `O=C[C@H](O)[C@@H](O)[C@H](O)[C@H](O)C(=O)[O-].[Na+]` [sodium D-glucuronate], the Relative activity in the data set on PQQ-ADH (1) (0.2M substrate) is less than 1%; in the data set with PQQ-ALDH (2) (0.2M substrate), 18.6%; in the data set with PQQ/Heme-ALDH (4) (0.2M substrate), 2.9%.

On to `O=CC(=O)[O-].[Na+]` [sodium glyoxylate, reference compound], for which the Relative activity with PQQ-ALDH (2) (0.2M substrate) was 3,050%; with PQQ/Heme-ALDH (4) (0.2M substrate), 20,260%.

As to `O=C[C@@H](O)[C@@H](O)[C@H](O)[C@@H](O)C(=O)O` [sodium salt of intermediate B, L-guluronic acid], the Relative activity is recorded as 2.7% with PQQ-ADH (1) (0.2M substrate), 100% in the data set with PQQ-ALDH (2) (0.2M substrate) and 21.1% in the data set with PQQ/Heme-ALDH (4) (0.2M substrate).

B1: PQQ/Heme-ALDH (4): ALDH (3) enzyme with the highest activity, contains PQQ and Heme c, SEQ ID NO: 3 (protein)
chain: MTIRLKTLLAFTAITTLALPAFAQDAAAPAAPAARTYKPVTNDMILNPPAEEWISWRRTVDNQGYSPLDLINKDIVKNLELAWAWPMAADGQQEAAPLVHDGIMFLSTNQNIIQALDAKTGDLIWEYRHVLPELPTSWGYQLNQARRQKNSIALYDDKVIVATADAKLVALDAATGKVAWETQVYDTQKGYSYTVGPLIVGDTAVYGPAGGEYGIRGWLEFIAAHDAKTGKEIWRFNTIDDPKNPEQEASWNGVPPENRWGGTPWTTGSYDPRTNTTFWGVGMPGPYSQLIRGSGEGPVLYTNNTLALDADTGERKWNFSHLPADNWDLDSPFERILVDEGQGDAAKHLLVTVPGKDGIAFGLDRDTGKYLWSRDTVYQNVVKNIDAEGKVTLNSDLVPTAVNQEVFVCTSVSGGKLWMTGAYSPKTQTYYVPLAEACNTVTPTVTEFTAGNAVGATKFGPRVLPPNITNGGVVEAINVADGARKWRLEQRPTFSSSLLAKAKVLVPRRLNGMLATGGDLETGQVVWKTRLNAPIGGYPMTYEIDGEQYLAVPTGFSAQASSSASMFPEIPVPSGSGNSLFVFKLRNDTQTASK
modifications: PQQ and heme c cofactors; Pseudogluconobacter
In the case of B1, the Specific activity in the data set on ALDH (2 and 3) (enzyme purified from K591s strain, ALDH (3) activity) was 27,661 U/mg.

B2: PQQ-ADH (1): specific pyrroloquinoline quinone-dependent alcohol dehydrogenase, amino acid sequence of SEQ ID NO: 1 (protein)
chain: MLKQSLLASGLAALCVAAMGSLSLAAETTSERLLNAGSEAENGNWLMVHRTYDSHRFSPLSEINKDTIKDLGLASVTILDNASRGGRYASARNEGTPLVEDGFMYLQSGWSVVYKLDVRDGKTAKVVWKYDPEVDRQWVSDATCCGAENRGIGLWNDDVVALTMDGRVMSINKDTGELNWEKQRADKARAESFTGAPLIIGDTAVYGPAGGEYGIRGWLEAIDLKTGDVAWRTYTVPGPGEPGNDTWQGNAWETGGASIWQTGSYDPDTGMTYWGTGNPAPQIDAEYRPGDNLYASSLLALDAKDGALKWHFQFTPNDPYDYDEIGDNQLLDVSVDGKPSKMVVRAARNGFMYGFNRLDGAMTYAKQYVEDLTWTTGIDPKTGKPLEYDPKAQLQKYVAGTVGSREGNPGIYCPTLGGGKNWQPAAYSPNTKLLYVTSAEGCSAYVPEAAPNPTTTGGEYDVVKAQREWNGRLPAPEGTKLPDVFNGGSVKAIDPLTGETKAKVLVPRRLNGMLATGGDLVWSSGTDGNLYAYDANTLETVWTFNVGTALGGPPMSYSVDGKQYVAVLAGAAASAADKKVAPQSEFFVPADALYIFALK
modifications: Pseudogluconobacter
As to B2, the Specific activity came to 36.0 U/mg in the data set on ADH (1) (enzyme purified from K591s strain) and 38.6 U/mg in the data set with ADH (1) (enzyme purified from Rh47-3 strain).

B3: PQQ-ALDH (2): specific pyrroloquinoline quinone-dependent aldehyde dehydrogenase, amino acid sequence of SEQ ID NO: 2 (protein)
chain: MYRKGSVLTVSALVLGLCTSSVWAQQAPTTNALDNLTPVTSVWAQQAPTTNALDNLTPVTGWGYSPLDQINKDNVDKLQLVWSWGLSPGGTTQETPLVHDGVMFVQNSSHLIQALDAGTGELLWQYQYSLPTGVNPAGQRSKALYGDNLIFATRDAHIVAVNAKTGKLAWDQQVADYKKGWGYSSGPLVADGTIIQGMTNCGNGEPGGCFITGHDPATGKELWRLNTIASGDTPEGNSWNGLPQMSRYGASAWITGSYDPDQNIVFAGVGQPYPWPAVLNGLLPKSTDSKYTNNAAYTDSTLAIEPKTGALKWYHQYLATDTLDLDYVYERLLVDLPVKGEATKQVITAGKLAIIESLDRTSGKWLWAHETVPQNVVSAIDPVTGEKTINPDVIPQVGKTTVNCPADPGGRAWQATSFSPKTQMMYMPTVEFCSNTDVNPLDPGQVYTGGGLATFNRVPRPDSDGNIGQVRAINLADQTDAWMYRQHAPVTTSTLPTGGGLVFVGTLDRKLIAFDDTTGKILWTSPKLDNAIESFPVTFTAGDKQYVAVVTNWSSGLGRLKSITPDVQLPQDNPHTVYVFALPDTK
modifications: Pseudogluconobacter
As for B3, the Specific activity with ALDH (2 and 3) (enzyme purified from Rh47-3 strain, ALDH (2) activity) is on record as 8,928 U/mg.
